Reference: paper PMC2798597 (Biochemical pharmacology, 2009)
Where two headings read alike, the source gives them in different places. Values belong to the compound of their own block, whether it stands above or below them.

Key:
[1] = test system: MCF-7; experiment: MTT cytotoxicity / MDR reversal; type: cell-based, human; conditions: for fold-reversal: no FG020326 (reference)
[2] = test system: KBv200 (ABCB1); experiment: MTT cytotoxicity / MDR reversal; type: cell-based, human; conditions: for IC50: Homo sapiens, KBv200, read-out: IC50 ± SD; for fold-reversal: KBv200 cells, drug alone, no FG020326 (reference)
[3] = test system: SW1573/2R120 (LRP); experiment: MTT cytotoxicity / MDR reversal; type: cell-based, human
[4] = test system: KB; experiment: MTT cytotoxicity / MDR reversal; type: cell-based, human; conditions: for IC50: Homo sapiens, KB, read-out: IC50 ± SD; for fold-reversal: KB cells, drug alone, no FG020326 (reference)
[5] = test system: SW1573; experiment: MTT cytotoxicity / MDR reversal; type: cell-based, human
[6] = test system: MCF-7/adr (ABCB1); experiment: MTT cytotoxicity / MDR reversal; type: cell-based, human; conditions: for IC50: Homo sapiens, NCI/ADR-RES, read-out: IC50 ± SD; for fold-reversal: MCF-7/adr cells, drug alone, no FG020326 (reference)
[7] = test system: KBv200 cell xenografts; experiment: MDR human carcinoma xenograft model; type: in vivo, athymic nude mice
[8] = Paclitaxel plasma levels / pharmacokinetics in mice; type: in vivo, NIH mice; conditions: for AUC(0-t): AUC0→ 12, paclitaxel 18 mg/kg i.v.
[9] = test system: S1; experiment: MTT cytotoxicity / MDR reversal; type: cell-based
[10] = test system: S1-M1-80 (ABCG2); experiment: MTT cytotoxicity / MDR reversal; type: cell-based
[11] = test system: KB-3-1; experiment: MTT cytotoxicity / MDR reversal; type: cell-based, human
[12] = test system: KB-CV60 (ABCC1); experiment: MTT cytotoxicity / MDR reversal; type: cell-based, human
[13] = test system: NIH3T3/MRP-4-2 (ABCC4); experiment: MTT cytotoxicity / MDR reversal; type: cell-based, murine
[14] = test system: NIH3T3; experiment: MTT cytotoxicity / MDR reversal; type: cell-based, murine
[15] = Homo sapiens, MCF7, read-out: IC50 ± SD
[16] = Homo sapiens, SW1573, read-out: IC50 ± SD
[17] = paclitaxel experiment, paclitaxel 18 mg/kg i.p. q5d×3, FG020326 100 mg/kg p.o.
[18] = VCR experiment, VCR 0.2 mg/kg i.p. q2d×6, FG020326 100 mg/kg p.o. q2d×6
[19] = Mus musculus, NIH3T3, read-out: IC50 ± SD

Compound: N.N.[Cl][Pt][Cl] [Cisplatin, cisplatin, reference compound]
IC50 ([1]; read-out: IC50 ± SD, MCF-7 cells, drug alone, no FG020326): 3.55 ± 0.213 µM

Compound: COc1cccc2c1C(=O)c1c(O)c3c(c(O)c1C2=O)C[C@@](O)(C(=O)CO)C[C@@H]3O[C@H]1C[C@H](N)[C@H](O)[C@H](C)O1 [Doxorubicin, doxorubicin, reference compound]
IC50 [1, 15]: 0.081 ± 0.01 µM
fold-reversal ([1]; MCF-7 cells, drug alone): (1.0) fold
IC50 [2]: 0.979 ± 0.123 µM
fold-reversal [2]: (1.0) fold
IC50 [3, 16]: 1.54 ± 0.279 µM
fold-reversal ([3]; SW1573/2R120 cells, drug alone, no FG020326 (reference)): (1.0) fold
IC50 [4]: 0.02 ± 0.01 µM
fold-reversal [4]: (1.0) fold
IC50 [5, 16]: 0.116 ± 0.024 µM
fold-reversal ([5]; SW1573 cells, drug alone, no FG020326 (reference)): (1.0) fold
IC50 [6]: 14.3 ± 1.42 µM
fold-reversal [6]: (1.0) fold

AUC(0-t) ([8]; both, NIH, mouse, plasma, iv, 18 mg/kg, with FG020326 100 mg/kg p.o.): 69400 ± 2260 ng·h/mL
AUC(0-t) ([8]; both, NIH, mouse, plasma, iv, 18 mg/kg, without FG020326): 73600 ± 5580 ng·h/mL
AUC(0-inf) ([8]; both, NIH, mouse, plasma, iv, 18 mg/kg, AUC0→ ∞, paclitaxel 18 mg/kg i.v., without FG020326): 73700 ± 5570 ng·h/mL
clearance ([8]; both, NIH, mouse, plasma, iv, 18 mg/kg, CL, paclitaxel 18 mg/kg i.v., without FG020326): 0.0888 mL/min
MRT ([8]; both, NIH, mouse, plasma, iv, 18 mg/kg, MRT, paclitaxel 18 mg/kg i.v., without FG020326): 1.54 ± 0.02 h
half-life ([8]; both, NIH, mouse, plasma, iv, 18 mg/kg, T1/2β, paclitaxel 18 mg/kg i.v., with FG020326 100 mg/kg p.o.): 1.42 ± 0.08 h
Vd ([8]; both, NIH, mouse, plasma, iv, 18 mg/kg, Vd, paclitaxel 18 mg/kg i.v., without FG020326): 0.0124 ± 0.0011 L
T1/2α ([8]; paclitaxel 18 mg/kg i.v., without FG020326): 0.55 ± 0.04 h
Compound: CC(=O)O[C@H]1C(=O)[C@@]2(C)[C@H]([C@H](OC(=O)c3ccccc3)[C@]3(O)C[C@H](OC(=O)[C@H](O)[C@@H](NC(=O)c4ccccc4)c4ccccc4)C(C)=C1C3(C)C)[C@]1(OC(C)=O)CO[C@@H]1C[C@@H]2O [Paclitaxel]
IC50 [1, 15]: 0.00691 ± 0.000903 µM
fold-reversal ([1]; MCF-7 cells, drug alone): (1.0) fold
Growth Inhibition [7, 17]: 8.1%
Post-experiment Weight (body weight) [7, 17]: 24.4 ± 2.6 g
Weight of tumor [7, 17]: 2.06 ± 1.06 g
IC50 [2]: 0.0483 ± 0.00412 µM
fold-reversal [2]: (1.0) fold
IC50 [4]: 0.00138 ± 0.000148 µM
fold-reversal [4]: (1.0) fold
IC50 [6]: 0.34 ± 0.0387 µM
fold-reversal [6]: (1.0) fold

Compound: CC[C@@]1(O)C(=O)OCc2c1cc1n(c2=O)Cc2cc3c(CN(C)C)c(O)ccc3nc2-1 [Topotecan, topotecan]
fold-reversal ([9]; S1 cells, drug alone, no FG020326 (reference)): (1.0) fold
IC50 ([9]; read-out: IC50 ± SD): 0.084 ± 0.024 µM
IC50 ([10]; Homo sapiens, S1-M1-80, read-out: IC50 ± SD): 12 ± 1.28 µM
fold-reversal ([10]; S1-M1-80 cells, drug alone, no FG020326 (reference)): (1.0) fold
fold resistance ([10]; S1-M1-80 compared with S1 cells): 143.2 fold

Compound: CC[C@]1(O)C[C@H]2CN(CCc3c([nH]c4ccccc34)[C@@](C(=O)OC)(c3cc4c(cc3OC)N(C=O)[C@H]3[C@@](O)(C(=O)OC)[C@H](OC(C)=O)[C@]5(CC)C=CCN6CC[C@]43[C@@H]65)C2)C1 [Vincristine, vincristine]
IC50 [1, 15]: 0.059 ± 0.009 µM
fold-reversal ([1]; MCF-7 cells, drug alone): (1.0) fold
IC50 ([11]; Homo sapiens, KB 3-1, read-out: IC50 ± SD): 7.26 ± 0.724 µM
fold-reversal ([11]; KB-3-1 cells, drug alone, no FG020326 (reference)): (1.0) fold
Post-experiment Weight (body weight) [7, 18]: 25.6 ± 1.9 g
Weight of tumor [7, 18]: 2.92 ± 0.94 g
IC50 [2]: 1.32 ± 0.256 µM
fold-reversal [2]: (1.0) fold
IC50 ([12]; Homo sapiens, KB-CV60, read-out: IC50 ± SD): 88.6 ± 8.28 µM
fold-reversal ([12]; KB-CV60 cells, drug alone, no FG020326 (reference)): (1.0) fold
IC50 [13, 19]: 7.25 ± 0.779 µM
fold-reversal ([13]; NIH3T3/MRP-4-2 cells, drug alone, no FG020326 (reference)): (1.0) fold
IC50 [4]: 0.028 ± 0.009 µM
fold-reversal [4]: (1.0) fold
IC50 [14, 19]: 0.324 ± 0.024 µM
fold-reversal ([14]; NIH3T3 cells, drug alone, no FG020326 (reference)): (1.0) fold
IC50 [6]: 4.02 ± 0.656 µM
fold-reversal [6]: (1.0) fold
